Assay [1] relates to N. gonorrhoeae WHO M. In words: Liquid broth MIC in Fastidious broth. The settings on record: Neisseria gonorrhoeae, read-out: Minimum Inhibitory Concentration (MIC), N. gonorrhoeae WHO M.
Assay [2] deals with N. gonorrhoeae MS11. As to the kind of experiment: Liquid broth MIC in Fastidious broth. The settings on record: Neisseria gonorrhoeae, MS11, read-out: Minimum Inhibitory Concentration (MIC), N. gonorrhoeae MS11.
Assay [3] concerns N. gonorrhoeae WHO G. As to the kind of experiment: Liquid broth MIC in Fastidious broth. The settings on record: Neisseria gonorrhoeae, read-out: Minimum Inhibitory Concentration (MIC), N. gonorrhoeae WHO G.
The test system of assay [4] is E. coli D22. As to the kind of experiment: microbe, parasite or virus in culture. Format: cell-based. The settings on record: Escherichia coli, D22, read-out: MIC E. coli D22.
Assay [5] addresses T1, PBP2 from Neisseria gonorrhoeae (FA19) (Neisseria gonorrhoeae, UniProt P08149).
T1 construct: made in house
As to the kind of experiment: Bocillin-FL fluorescence polarization competition binding, N. gonorrhoeae PBP2. The settings on record: fluorescence polarization competition binding assay using Bocillin-FL, read-out: N. gonorrhoeae PBP2 Potency. From the text:
To determine the ability of boronic acid-based test PBP inhibitors to bind Penicillin Binding Proteins (PBPs), Bocillin-FL (fluorescently-labeled penicillin V; ThermoFisher Scientific) was used in a fluorescence polarization (FP) competition binding assay to assess inhibitor binding to PBP3 from Escherichia coli (K-12), PBP3 from Pseudomonas aeruginosa (PAO1), PBP1a and PBP3 from Acinetobacter baumannii (ATCC 19606), and PBP2 from Neisseria gonorrhoeae (FA19). PBPs were cloned and purified as described previously (E. coli PBP3, King, D. T, et al., ACS Infectious Diseases 2015, 1, 175-184; P. aeruginosa PBP3, Han et. al., PNAS 2010, 107 (51), 22002-22007; A. baumannii PBPs, Penwell et. al., Antimicrob. Agents Chemother. 2015, 59 (3), 1680-1689; N. gonorrhoeae PBP2, Singh et. al., J. Biol. Chem. 2019, 294 (38), 14020-14032). To establish assay conditions for competition binding, enzyme titration/saturation binding experiments were initially performed. Bocillin-FL was prepared at 0.2 μM in a buffer comprised of 50 mM Hepes (pH 8.0), 300 mM NaCl and 10% (v/v) glycerol for reactions with E. coli, P. aeruginosa and N. gonorrhoeae PBPs, and 25 mM Tris (pH 8.0), 200 mM NaCl, 10% (v/v) glycerol and 0.005% (v/v) Tween 20 for reactions with A. baumannii PBPs. Saturation binding was performed by mixing 40 μl of PBP solutions ranging in concentrations from 0-24 μM with 40 μl of the 0.2 μM Bocillin-FL solution, in individual wells of a black 384-well microplate. FP was measured immediately upon mixing (Excitation, 490 nm; Emission, 520 nm; g-factor, 0.96), using a Cytation3 (BioTek) microplate reader and measured continuously for up to 120 minutes. […] The competition binding assay (80 μl final volume) was validated using beta-lactams and PBPs at final concentrations of: 1.5 μM for E. coli PBP3; 0.75 μM for P. aeruginosa PBP3; 1 μM for A. baumannii PBP1a; 0.2 μM for A. baumannii PBP3; and 0.25 μM for N. gonorrhoeae PBP2. Bocillin-FL was at 0.1 μM (0.05 μM with A. baumannii PBP1a) and beta-lactam concentrations ranged from 0-1,000 μM. E. coli PBP3 was incubated with increasing concentrations of ampicillin in a black 384-well microplate (Corning) for 30 minutes. P. aeruginosa PBP3 was incubated for 15 minutes with aztreonam, whereas A. baumannii PBP1a and PBP3 were incubated for 15 minutes with meropenem, and then Bocillin-FL was added followed immediately by the FP measurement for up to 60 minutes. […] The beta-lactam potency was reported as the concentration of beta-lactam required to reduce the amount of PBP bound-Bocillin-FL by 50% (EC50). […] Binding assays for boronic acid PBP inhibitors were performed in an identical fashion for the respective PBPs.
In general terms: Polarisation of emitted light reports the rotation of a fluorescent probe.

Assay [6] has as its system P. aeruginosa (ΔmexAB-oprM). In words: Broth microdilution MIC in CAMHB. In kind it is cell-based. The settings on record: Pseudomonas aeruginosa; read-out: MIC P. aeruginosa ΔmexAB-oprM. (In general: Broth dilution looks for growth in wells or tubes with falling amounts of substance.)

pEC50: −log10 of the molar value. ≈ marks a conversion by molar mass, not a printed value. A value given as a limit tells only on which side of the number the result lay.

T1 sequence (P08149 whole entry): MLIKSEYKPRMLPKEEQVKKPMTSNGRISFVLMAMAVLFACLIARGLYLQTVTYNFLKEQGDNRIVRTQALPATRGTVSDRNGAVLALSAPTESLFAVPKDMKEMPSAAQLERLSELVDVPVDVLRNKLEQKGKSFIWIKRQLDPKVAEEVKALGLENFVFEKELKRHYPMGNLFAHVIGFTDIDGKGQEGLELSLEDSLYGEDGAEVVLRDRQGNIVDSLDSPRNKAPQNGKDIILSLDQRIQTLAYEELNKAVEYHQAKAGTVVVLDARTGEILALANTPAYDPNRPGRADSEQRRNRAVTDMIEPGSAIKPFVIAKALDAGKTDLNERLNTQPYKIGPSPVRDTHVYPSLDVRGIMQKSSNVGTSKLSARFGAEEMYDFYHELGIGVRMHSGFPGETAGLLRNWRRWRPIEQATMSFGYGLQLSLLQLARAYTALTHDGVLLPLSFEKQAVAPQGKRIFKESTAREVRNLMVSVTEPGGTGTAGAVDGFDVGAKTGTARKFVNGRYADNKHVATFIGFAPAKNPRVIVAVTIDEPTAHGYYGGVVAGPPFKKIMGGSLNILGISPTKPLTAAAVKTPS

With `Nc1nc(C(=O)N[C@@H](C(=O)N[C@H]2Cc3cccc(C(=O)O)c3OB2O)c2ccc(P(=O)(O)O)cc2)cs1` (racemic) [Example 51, (R)-3-((S)-2-(2-aminothiazole-4-carboxamido)-2-(4-phosphonophenyl)acetamido)-2-hydroxy-3,4-dihydro-2H-benzo[e][1,2]oxaborinine-8-carboxylic acid and (R)-3-((R)-2-(2-aminothiazole-4-carboxamido)-2-(4-phosphonophenyl)acetamido)-2-hydroxy-3,4-dihydro-2H-benzo[e][1,2]oxaborinine-8-carboxylic acid], the MIC is less than 1 µg/mL in assay [1]; less than 1 µg/mL in assay [2]; less than 1 µg/mL in assay [3]; 2 to 4 µg/mL (≈ 3.66 to 7.32 µM) in assay [4]; 32 to 64 µg/mL (≈ 58.6 to 117 µM) in assay [6]. For the same compound, the pEC50 in assay [5] is greater than 5.00.
Take `CCN1CCN(C(=O)N[C@@H](C(=O)N[C@H]2Cc3cccc(C(=O)O)c3OB2O)c2ccc(P(=O)(O)O)c(F)c2)C(=O)C1=O` (single isomer, unassigned) [Example 7]: the MIC in assay [1] is less than 1 µg/mL; in assay [2], less than 1 µg/mL; in assay [3], less than 1 µg/mL; in assay [4], 2 to 4 µg/mL (≈ 3.3 to 6.6 µM); in assay [6] it was 8 to 16 µg/mL (≈ 13.2 to 26.4 µM). Further, the pEC50 in assay [5] was greater than 5.00.
`CCN1CCN(C(=O)N[C@@H](C(=O)N[C@H]2Cc3ccc(F)c(C(=O)O)c3OB2O)c2ccc(P(=O)(O)O)cc2)C(=O)C1=O` (single isomer, unassigned) [Example 10]: the MIC in assay [1] was less than 1 µg/mL; in assay [2] it was less than 1 µg/mL; in assay [3], less than 1 µg/mL; in assay [4] it was 8 to 16 µg/mL (≈ 13.2 to 26.4 µM); in assay [6], 32 to 64 µg/mL (≈ 52.8 to 106 µM). Further, the pEC50 in assay [5] was greater than 5.00.
In the case of `CS(=O)(=O)N1CCN(C(=O)N[C@@H](C(=O)N[C@H]2Cc3cccc(C(=O)O)c3OB2O)c2ccc(P(=O)(O)O)c(F)c2F)C1=O` (single isomer, unassigned) [Example 13], the MIC was less than 1 µg/mL in assay [1]; less than 1 µg/mL in assay [2]; less than 1 µg/mL in assay [3]; 8 to 16 µg/mL (≈ 12.4 to 24.8 µM) in assay [4]; 32 to 64 µg/mL (≈ 49.5 to 99 µM) in assay [6]. Also, the pEC50 in assay [5] is greater than 5.00.
For `O=C(O)c1c(F)ccc2c1OB(O)[C@@H](NC(=O)C(NC(=O)N1CCN(Cc3ccc(O)c(O)c3Cl)C(=O)C1=O)c1ccc(P(=O)(O)O)c(F)c1)C2` (stereo partly drawn) [Example 23, (3R)-3-(2-(4-(2-chloro-3,4-dihydroxybenzyl)-2,3-dioxopiperazine-1-carboxamido)-2-(3-fluoro-4-phosphonophenyl)acetamido)-7-fluoro-2-hydroxy-3,4-dihydro-2H-benzo[e][1,2]oxaborinine-8-carboxylic acid], the MIC in assay [1], in assay [2] and in assay [3] was less than 1 µg/mL in each case. Besides, in assay [5], the pEC50 was greater than 5.00.
As for `O=C(O)c1cccc2c1OB(O)[C@@H](NC(=O)C(NC(=O)N1CCN(Cc3ccc(O)c(O)c3Cl)C(=O)C1=O)c1ccc(P(=O)(O)O)cc1)C2` (stereo partly drawn) [Example 24, (3R)-3-(2-(4-(2-chloro-3,4-dihydroxybenzyl)-2,3-dioxopiperazine-1-carboxamido)-2-(4-phosphonophenyl)acetamido)-2-hydroxy-3,4-dihydro-2H-benzo[e][1,2]oxaborinine-8-carboxylic acid], the MIC in assay [1], in assay [2] and in assay [3] was less than 1 µg/mL in each case. In addition, the pEC50 in assay [5] was greater than 5.00.
As for `O=C(O)c1c(F)ccc2c1OB(O)[C@@H](NC(=O)C(NC(=O)N1CCN(Cc3cc(F)c(O)c(O)c3Cl)C(=O)C1=O)c1ccc(P(=O)(O)O)cc1)C2` (stereo partly drawn) [Example 45, (3R)-3-(2-(4-(2-chloro-5-fluoro-3,4-dihydroxybenzyl)-2,3-dioxopiperazine-1-carboxamido)-2-(4-phosphonophenyl)acetamido)-7-fluoro-2-hydroxy-3,4-dihydro-2H-benzo[e][1,2]oxaborinine-8-carboxylic acid], the MIC in assay [1], in assay [2] and in assay [3] was less than 1 µg/mL in each case. Besides, the pEC50 in assay [5] was greater than 5.00.
Regarding `O=C(O)c1c(F)ccc2c1OB(O)[C@@H](NC(=O)C(NC(=O)N1CCN(Cc3ccc(O)c(O)c3Cl)C1=O)c1ccc(P(=O)(O)O)cc1)C2` (stereo partly drawn) [Example 46, (3R)-3-(2-(3-(2-chloro-3,4-dihydroxybenzyl)-2-oxoimidazolidine-1-carboxamido)-2-(4-phosphonophenyl)acetamido)-7-fluoro-2-hydroxy-3,4-dihydro-2H-benzo[e][1,2]oxaborinine-8-carboxylic acid], the MIC in assay [1], in assay [2] and in assay [3] was less than 1 µg/mL in each case. The pEC50 in assay [5] was greater than 5.00.
Turning to `O=C(O)c1cccc2c1OB(O)[C@@H](NC(=O)[C@H](NC(=O)[C@@H]1CCCN1)c1ccc(P(=O)(O)O)cc1)C2` [Example 173, (R)-2-hydroxy-3-((R)-2-(4-phosphonophenyl)-2-((S)-pyrrolidine-2-carboxamido)acetamido)-3,4-dihydro-2H-benzo[e][1,2]oxaborinine-8-carboxylic acid], the MIC in assay [1] fell in the range of 4 to 8 µg/mL (≈ 7.73 to 15.5 µM); in assay [2] it was 16 to 32 µg/mL (≈ 30.9 to 61.9 µM); in assay [3], 4 to 8 µg/mL (≈ 7.73 to 15.5 µM); in assay [4], 32 to 64 µg/mL (≈ 61.9 to 124 µM); in assay [6] it was 32 to 64 µg/mL (≈ 61.9 to 124 µM).
As for `O=C(O)c1cccc2c1OB(O)[C@@H](NC(=O)C(NC(=O)c1ccc[nH]c1=O)c1ccc(P(=O)(O)O)cc1)C2` (stereo partly drawn) [Example 174, (3R)-2-hydroxy-3-(2-(2-oxo-1,2-dihydropyridine-3-carboxamido)-2-(4-phosphonophenyl)acetamido)-3,4-dihydro-2H-benzo[e][1,2]oxaborinine-8-carboxylic acid], the MIC in assay [1] is 1 to 2 µg/mL (≈ 1.85 to 3.7 µM); in assay [2], 4 to 8 µg/mL (≈ 7.39 to 14.8 µM); in assay [3] it was 1 to 2 µg/mL (≈ 1.85 to 3.7 µM); in assay [4], 32 to 64 µg/mL (≈ 59.1 to 118 µM); in assay [6], 32 to 64 µg/mL (≈ 59.1 to 118 µM).
For `O=C(O)c1cccc2c1OB(O)[C@@H](NC(=O)[C@H](NC(=O)c1c[nH]ccc1=O)c1ccc(P(=O)(O)O)cc1)C2` [Example 175, (R)-2-hydroxy-3-((R)-2-(4-oxo-1,4-dihydropyridine-3-carboxamido)-2-(4-phosphonophenyl)acetamido)-3,4-dihydro-2H-benzo[e][1,2]oxaborinine-8-carboxylic acid], the MIC in assay [1] is less than 1 µg/mL; in assay [2], 1 to 2 µg/mL (≈ 1.85 to 3.7 µM); in assay [3], 1 to 2 µg/mL (≈ 1.85 to 3.7 µM); in assay [4], 8 to 16 µg/mL (≈ 14.8 to 29.6 µM); in assay [6], 8 to 16 µg/mL (≈ 14.8 to 29.6 µM).
Take `O=C(O)c1cccc2c1OB(O)[C@@H](NC(=O)C(NC(=O)c1cnc[nH]c1=O)c1ccc(P(=O)(O)O)cc1)C2` (stereo partly drawn) [Example 176, (3R)-2-hydroxy-3-(2-(6-oxo-1,6-dihydropyrimidine-5-carboxamido)-2-(4-phosphonophenyl)acetamido)-3,4-dihydro-2H-benzo[e][1,2]oxaborinine-8-carboxylic acid]: the MIC in assay [1] is 1 to 2 µg/mL (≈ 1.84 to 3.69 µM); in assay [2] it was 4 to 8 µg/mL (≈ 7.38 to 14.8 µM); in assay [3] it was 4 to 8 µg/mL (≈ 7.38 to 14.8 µM); in assay [4], greater than 128 µg/mL; in assay [6], 32 to 64 µg/mL (≈ 59 to 118 µM).
For `N#Cc1ccnc(C(=O)NC(C(=O)N[C@H]2Cc3cccc(C(=O)O)c3OB2O)c2ccc(P(=O)(O)O)cc2)c1` (stereo partly drawn) [Example 179, (3R)-3-(2-(4-cyanopicolinamido)-2-(4-phosphonophenyl)acetamido)-2-hydroxy-3,4-dihydro-2H-benzo[e][1,2]oxaborinine-8-carboxylic acid], the MIC is 4 to 8 µg/mL (≈ 7.27 to 14.5 µM) in assay [1]; 16 to 32 µg/mL (≈ 29.1 to 58.2 µM) in assay [2]; 16 to 32 µg/mL (≈ 29.1 to 58.2 µM) in assay [3]; 32 to 64 µg/mL (≈ 58.2 to 116 µM) in assay [4]; greater than 128 µg/mL in assay [6].

The values above are taken from patent US20240270762A1, “PENICILLIN-BINDING PROTEIN INHIBITORS” (priority 2021, published 2024).
